The numbers were not newly measured in publication PMC6968775, “Assessment of contribution of BCRP to intestinal absorption of various drugs using portal‐systemic blood concentration difference model in mice” (Pharmacology Research & Perspectives, 2020), which cites them from elsewhere.

The structures appear in SMILES notation.

The conditions of this series: human; cited from earlier work.

As for `O=C(O)c1cn(C2CC2)c2cc(N3CCNCC3)c(F)cc2c1=O` [ciprofloxacin, Ciprofloxacin], the “oral BA in human” value is “about 70%”.
